Test results reported in patent publication US10266549B2, “ULK1 inhibitors and methods using same” (SALK INSTITUTE FOR BIOLOGICAL STUDIES, priority 2014, dated 2019).

Test system: ULK1
Test: phosphorylation of ULK1 substrates (Vps34 Ser249, Beclin Ser15) in HEK293T cells co-expressing wild-type ULK1
Format: cell-based, human
Procedure: At 24-hr post-transfection, cells were treated with a panel of putative ULK1 competitive inhibitors in a dose-response manner (1, 10, 50 μM). Cellular lysates were isolated after 1 hr of treatment and immunoblotted with the indicated antibodies. Representative results for compound 14 are shown.
FIG. 7C: HEK293T cells were transfected with WT or KI ULK1 and WT Vps34 (left) or WT Flag-tagged Beclin1 (WT Beclin1; right). At 24-hr post-transfection, cells were treated with compound 14 (10 μM) or DMSO. Cellular lysates were isolated after 1 hr of treatment and immunoblotted with the indicated antibodies.
For transient expression in HEK293T cells were transfected with 2 ug each DNA plasmid per 6 cm dish using Lipofectamine 2000 (Invitrogen) following the manufacturer's protocol. Cells were harvested 24 hours after transfection and rinsed once with ice-cold PBS and lysed in boiling SDS lysis buffer (10 mM Tris pH7.5, 100 mM NaCl, 1% SDS). After trituration, lysates were equilibrated for protein levels using the BCA method (Pierce) and resolved on 8 to 15% SDS-PAGE Phos-Tag™ gels according to the manufacturer's instructions. Briefly, Phos-Tag™ AAL-107 (HARD #304-93521) was added to SDS-PAGE acryamide mixture at a final concentration of 50 μM along with MnCl2 at a final concentration of 100 μM. […]

CNC(=O)c1ccccc1Nc1nc(Nc2cc(OC)c(OC)c(OC)c2)ncc1Br [compound 14, 2-(5-bromo-2-(3,4,5-trimethoxyphenylamino)pyrimidin-4-ylamino)-N-methylbenzamide]
inhibition of Beclin Ser15 and Vps34 Ser249 phosphorylation (10 μM, 1 hr): inhibited Beclin Ser15 and Vps34 Ser249 to comparable extents | concentration inhibiting P-Vps34 on overexpressed Vps34 (WT ULK1 + Flag-Vps34, 1 hr treatment): ~5 µM
